The values that follow are results of earlier work, collected in patent US20020025341A1, “Controlled release formulation of divalproex sodium” (priority 1998, published 2002).

Like-named read-outs stand apart in the source and are kept apart here.

The conditions of series [1]: patients consuming valproate.

Consider `CCCC(CCC)C(=O)O` [valproate], for which the figures for the “free fraction (plasma protein binding)” value with plasma proteins (at 40 μg/ml) and in the series with plasma proteins (at 130 μg/ml) were “approximately 10%” and 18.5%, respectively. Besides, in series [1], the “patients affected by GI irritation” value is listed as “up to one third of patients”.

As for `CCCC(CCC)C(=O)O` [valproic acid, 2-Propylpentanoic acid], the half life entry is “between six and seventeen hours” (in adults); “between four and fourteen hours” (in children).
